{"source": "patent US12025612B2", "about": "“Brown adipocyte progenitors in human skeletal muscle” (Energesis Pharmaceuticals, Inc., priority 2008, dated 2024)", "key": {"[1]": {"tested_on": "UCP1 mRNA expression in fetal muscle CD34+ cells", "assay": "UCP1 mRNA expression in cultured fetal muscle CD34+ cells, quantitative RT-PCR normalized to cyclophilin A", "assay_type": "cell-based, human", "conditions": "rosiglitazone 1 μM", "method": "UCP1 mRNA expression in fetal muscle CD34+ cells could be modulated by drug treatment. Cell-permeating cAMP derivatives strongly stimulated (7 to 8-fold) UCP1 mRNA expression in both primary cultured and expanded cells. The effects of cAMP derivatives, 8-bromo-cAMP, 0.25 mM or (4-chlorophenylthio)-cAMP, 0.25 mM (cAMP) on UCP1 mRNA expression in CD34+ cells in primary culture (PC) or expanded up to passage 3 (P3) are shown in FIG. 3B. All the cells were grown for 4-6 days in EGM2 medium and then placed for 8-12 days in the adipogenic medium described under Materials and Methods. The results are means±s.e.m. of arbitrary values normalized using the corresponding cyclophilin A values. They are expressed in % of their respective untreated (control) values considered as 100% (*p<0.05, n=3-6).\nRosiglitazone, a PPARγ agonist, had no effect in primary culture cells but strongly stimulated (8-fold) UCP1 mRNA expression in expanded cells. The results are expressed as in FIG. 3B (**p<0.01, n=4-7). […]\nTotal cell RNA was prepared using the kit NucleoSpin® RNAII (Clontech, Palo Alto, Calif.) or Extract-all solution (Eurobio, Courtaboeuf, France) and quantified by Biophotometry (Biophotometer, Eppendor). […] Quantitative real-time PCR was performed using ABI rapid thermal cycler system, and a SYBR Green PCR master mix (Applied Biosystems, Foster City, Calif.). […]"}, "[2]": {"tested_on": "UCP1 mRNA expression in human skeletal muscle", "assay": "UCP1 mRNA expression in vastus lateralis muscle biopsies of obese type 2 diabetic patients before and after rosiglitazone, quantitative RT-PCR", "assay_type": "in vivo", "conditions": "for UCP1 mRNA level after treatment (Rosi), normalized to cyclophilin A: after 8 weeks", "method": "Since the PPARγ agonist rosiglitazone was a strong inducer of UCP1 mRNA expression in muscle CD34+ cells in culture, the effect of this compound in vivo in humans was investigated. Vastus lateralis muscle biopsies from 7 obese patients with type 2 diabetes mellitus treated for the management of their metabolic syndrome with rosiglitazone were used. The biopsies were obtained before and after 8 weeks of treatment with rosiglitazone (2×4 mg per day). […] In that study rosiglitazone, concomitantly with the improvement in insulin sensitivity, increased the level of expression of UCP1 in muscle by about 1.6-fold. […] The results are the means±s.e.m. of arbitrary values normalized using the corresponding cyclophilin A values (n=7, *p<0.05 vs. control).\nIn FIG. 5, showing UCP1 mRNA levels in skeletal muscle biopsies from a patient group (n=7), “control” corresponds to levels before treatment, and “Rosi” corresponds to levels after treatment (8 weeks) with rosiglitazone. Being a longitudinal study the effect of rosiglitazone on UCP1 levels in each individual (comparison of individual values for the “control”-before and “Rosi”-after conditions) were determined. Starting with 25 ng cDNA (produced by reverse transcription of RNA) the threshold of detection (Ct) during real-time PCR was about 22 for UCP1 and about 18 for cyclophilin.\nHuman fetal tissues were obtained anonymously, following spontaneous, voluntary or therapeutic terminations of pregnancy, from Magee Women Hospital, University of Pittsburgh, in compliance with the Institutional Review Board protocol. Developmental age (16 to 24 weeks of gestation) was estimated by measuring foot length. Informed consent to the use of fetal tissues was obtained from the patients in all instances. Adult human discarded abdominal subcutaneous WAT, originating from 45-55 year old patients undergoing plastic surgery performed one year after gastric bypass, was kindly provided by Dr Peter Rubin (Division of Plastic Surgery, University of Pittsburgh). The adult skeletal muscle tissue used for cell sorting was obtained post mortem from 50-78 year-old donors. The adult skeletal muscle used for the first group of RT-PCR studies was obtained from the rectus abdominus during surgery for either lap banding, inguinal hernia or hysterectomy of 10 lean male and female subjects. All subjects agreed to donate muscle samples during their operations and the protocol was approved by the Medical Ethical Review Committee of Deakin University. The average ages were 45±3 years and the average body mass index was 22.2±0.8. The adult skeletal muscle used for the second group of RT-PCR studies was obtained from the vastus lateralis of 7 obese type 2 diabetic male and female patients before and after 8 weeks of treatment with rosiglitazone (2×4 mg per day). The average age was 63±4 years and the average body mass index was […]. The complete clinical profile of the patients has been described in a previous publication. All subjects agreed to donate muscle samples, and the protocol was approved by the Medical Ethical Review Committee of Maastricht University.\nTotal cell RNA was prepared using the kit NucleoSpin® RNAII (Clontech, Palo Alto, Calif.) or Extract-all solution (Eurobio, Courtaboeuf, France) and quantified by Biophotometry (Biophotometer, Eppendor). Oligo-dT primed First strand cDNA were synthesized using the Superscript™ II RNase H Reverse Transcription kit (Invitrogen, Carlsbad, Calif.) and oligo-dT primers or the High Capacity cDNA Reverse Transcription kit (Applied Biosystems, Foster City, Calif.) and random primers. Quantitative real-time PCR was performed using ABI rapid thermal cycler system, and a SYBR Green PCR master mix (Applied Biosystems, Foster City, Calif.). Cyclophilin A was used as a control to account for any variations due to the efficiency of the reverse transcription. […]"}}}
{"smiles": "CN(CCOc1ccc(CC2SC(=O)NC2=O)cc1)c1ccccn1", "note": "(centres unmarked) [rosiglitazone]", "values": [{"measurement": "stimulation of UCP1 mRNA expression", "setting": "[1]; CD34+ cells expanded up to passage 3 (P3)", "value": 8, "unit": "fold"}, {"measurement": "effect on UCP1 mRNA expression", "setting": "[1]; CD34+ cells in primary culture (PC)", "value": "no effect"}, {"measurement": "increase of the level of expression of UCP1 in muscle", "setting": "[2]; 7 obese type 2 diabetic patients, 8 weeks, 2×4 mg per day, after vs before treatment, mean", "value": "about 1.6 fold"}, {"measurement": "UCP1 level at end of treatment in % of before treatment", "setting": "[2]; Patient 1, 8 weeks", "value": 150, "unit": "%"}, {"measurement": "UCP1 level increase, end of treatment vs. before", "setting": "[2]; Patient 1, 8 weeks", "value": 50, "unit": "%"}, {"measurement": "UCP1 mRNA level after treatment (Rosi), normalized to cyclophilin A", "setting": "[2]; Patient 1", "value": 652, "unit": "arbitrary units"}, {"measurement": "UCP1 level at end of treatment in % of before treatment", "setting": "[2]; Patient 2, 8 weeks", "value": 100, "unit": "%"}, {"measurement": "UCP1 mRNA level after treatment (Rosi), normalized to cyclophilin A", "setting": "[2]; Patient 2", "value": 453, "unit": "arbitrary units"}, {"measurement": "UCP1 level at end of treatment in % of before treatment", "setting": "[2]; Patient 3, 8 weeks", "value": 180, "unit": "%"}, {"measurement": "UCP1 level increase, end of treatment vs. before", "setting": "[2]; Patient 3, 8 weeks", "value": 80, "unit": "%"}, {"measurement": "UCP1 mRNA level after treatment (Rosi), normalized to cyclophilin A", "setting": "[2]; Patient 3", "value": 677, "unit": "arbitrary units"}, {"measurement": "UCP1 level at end of treatment in % of before treatment", "setting": "[2]; Patient 4, 8 weeks", "value": 280, "unit": "%"}, {"measurement": "UCP1 level increase, end of treatment vs. before", "setting": "[2]; Patient 4, 8 weeks", "value": 180, "unit": "%"}, {"measurement": "UCP1 mRNA level after treatment (Rosi), normalized to cyclophilin A", "setting": "[2]; Patient 4", "value": 730, "unit": "arbitrary units"}, {"measurement": "UCP1 level at end of treatment in % of before treatment", "setting": "[2]; Patient 5, 8 weeks", "value": 108, "unit": "%"}, {"measurement": "UCP1 level increase, end of treatment vs. before", "setting": "[2]; Patient 5, 8 weeks", "value": 8, "unit": "%"}, {"measurement": "UCP1 mRNA level after treatment (Rosi), normalized to cyclophilin A", "setting": "[2]; Patient 5", "value": 600, "unit": "arbitrary units"}, {"measurement": "UCP1 level at end of treatment in % of before treatment", "setting": "[2]; Patient 6, 8 weeks", "value": 410, "unit": "%"}, {"measurement": "UCP1 level increase, end of treatment vs. before", "setting": "[2]; Patient 6, 8 weeks", "value": 310, "unit": "%"}, {"measurement": "UCP1 mRNA level after treatment (Rosi), normalized to cyclophilin A", "setting": "[2]; Patient 6", "value": 556, "unit": "arbitrary units"}, {"measurement": "UCP1 level at end of treatment in % of before treatment", "setting": "[2]; Patient 7, 8 weeks", "value": 110, "unit": "%"}, {"measurement": "UCP1 level increase, end of treatment vs. before", "setting": "[2]; Patient 7, 8 weeks", "value": 10, "unit": "%"}, {"measurement": "UCP1 mRNA level after treatment (Rosi), normalized to cyclophilin A", "setting": "[2]; Patient 7", "value": 142, "unit": "arbitrary units"}]}
